Experimental data as given in patent US11286274B2, “Nicotinamide riboside derivatives and their uses” (MitoPower LLC, priority 2017, dated 2022).
Counter-ions that a name gives are not always drawn.

Columns and labels:
Jurkat cells = assay: Total cellular NAD+ level after MNNG-induced depletion (NAD/NADH Glo Assay), Jurkat cells; assay type: cell-based; settings: for % NAD+ Repletion: Jurkat, MNNG 100 μM, compound 1 mM; for increase of NAD+ level: Jurkat cells, 100 μM MNNG 30 min
HEPG2 cells = assay: Total cellular NAD+ level after MNNG-induced depletion (NAD/NADH Glo Assay), HEPG2 cells; assay type: cell-based; settings: HEPG2, MNNG 100 μM, compound 1 mM

Structure (SMILES)	% NAD+ Repletion (Jurkat cells) [%]	% NAD+ Repletion (HEPG2 cells) [%]	increase of NAD+ level (Jurkat cells; then NR 100 μM without olaparib for 3.5 hr) [%]	increase of NAD+ level (Jurkat cells; then olaparib 5 nM without NR for 3.5 hr) [%]
NC(=O)c1ccc[n+]([C@@H]2O[C@H](COC(=O)CCC(=O)O)[C@@H](O)[C@H]2O)c1 [MP-42, 3-Carboxamide-1-((2R,3R,4S,5R)-5-(((3-carboxypropanoyl)oxy)methyl)-3,4-dihydroxytetrahydrofuran-2-yl)pyridin-1-ium trifluoroacetate]	8.2	23.7		
COC(=O)CCC(=O)OC[C@H]1O[C@@H]([n+]2cccc(C(N)=O)c2)[C@H](O)[C@@H]1O [MP-43, 3-Carboxamide-1-((2R,3R,4S,5R)-3,4-dihydroxy-5-(((4-methoxy-4-oxobutanoyl)oxy)methyl)tetrahydrofuran-2-yl)pyridin-1-ium trifluoroacetate]	12.9	31.1		
NC(=O)c1ccc[n+]([C@@H]2O[C@H](CO)[C@@H](O)[C@H]2O)c1 [NR, nicotinamide riboside]			43	
O=C(c1cc(Cc2n[nH]c(=O)c3ccccc23)ccc1F)N1CCN(C(=O)C2CC2)CC1 [olaparib, reference compound]				8
